Test results from publication PMC8953266, “The Transthyretin/Oleuropein Aglycone Complex: A New Tool against TTR Amyloidosis” (Pharmaceuticals, 2022).

Tests used:
transthyretin (L55P-TTR) = target: T1, transthyretin (L55P-TTR) (Homo sapiens, UniProt P02766, L75P); assay: ligand fluorescence titration (blue shift of OleA emission); noisier, and no stabilization in urea unfolding; assay type: binding
T1 construct: recombinant L55P-TTR, homotetramer

transthyretin (wt-TTR) = target: T2, transthyretin (wt-TTR) (Homo sapiens, UniProt P02766); assay: ligand fluorescence titration (blue shift of OleA emission, fitted to a binding equilibrium); urea unfolding shows stabilization
T2 construct: recombinant wt-TTR, homotetramer

- Kd (transthyretin (L55P-TTR)): 3.12 ± 0.62 µM
- Kd (transthyretin (wt-TTR)): 3.23 ± 0.32 µM
Structure (SMILES): C/C=C1/C(O)OC=C(C(=O)OC)[C@H]1CC(=O)OCCc1ccc(O)c(O)c1 (mixture of isomers) [OleA, oleuropein aglycone]
